{
  "source": "patent US12383608B2",
  "about": "“WT1 helper peptides and combinations of WT1 helper peptide and conjugate of cancer antigen peptides” (Sumitomo Pharma Co., Ltd., priority 2016, dated 2025)",
  "test_system": "HLA-A*02:01 transgenic mouse (C57BL/6CrHLA-A2.1DR1)",
  "assay": "In vivo CTL induction in HLA-A*02:01 transgenic mouse (IFNγ ELISPOT assay on splenocytes)",
  "settings": "Montanide ISA 51 VG, intradermal; for Effect of the cocktail vaccine comprising the peptide on the CTL induction by the compound of formula (4): cocktail vaccine: helper peptide (170-315 μg per site) + compound of formula (4) (250 μg per site), molar ratio 1:1.13-1.15 or equimolar, compared with compound of formula (4) alone; for CTL induction by the cocktail vaccine comprising the peptide in addition to the compound of formula (4) (increase in number of CTLs): cocktail vaccine: helper peptide + compound of formula (4), compared with the vaccine comprising the compound of formula (4)",
  "method": "The HLA-A*02:01 transgenic mouse (C57BL/6CrHLA-A2.1DR1) lacks mouse MHC, and instead expresses a chimeric IILA of a human MHC, HLA-A*02:01 with a mouse MHC, H-2Db, and HLA-DRB1*01:01.\nThe solution was diluted with water for injection to a concentration of 10 mg/ml, and then converted to an emulsion by addition of an equal volume of Montanide ISA 51 VG. […] One week after the administration, the mice were sacrificed with CO2 gas. Splenocytes were harvested from spleens removed from the mice. For detecting IFNγ-producing splenocytes, an IFNγ ELISPOT assay kit was used. In particular, an ELISPOT plate was treated with an anti-mouse-IFNγ antibody on the day before preparation of the splenocyte samples. On the next day, the plate was blocked by treatment with an RPMI 1640 medium with 10% FBS. To the blocked ELISPOT plate, the splenocyte samples from the HLA-A*02:01 transgenic mice were added at 1.25×10^5 cells/well. For in vitro stimulation of the cells, the peptide of SEQ ID NO: 15 was dissolved in DMSO at a concentration of 40 mg/ml, diluted with RPMI 1640 with 10% FBS to 40 μg/ml, and added to the splenocyte-containing wells at a final concentration of 10 μg/ml. The plate was incubated for 17 hours at 37° C. under an atmosphere of 5% CO2. Then, after removal of the culture medium from the wells, the ELISPOT plate was subjected to treatment for cell staining in accordance with the manufacturer's protocol. Stained spots were counted on ImmunoSpot Analyzer (C.T.L.).\nThe scale on the vertical axis of the graph of FIG. 1 indicates the number of cells (CTLs) which produced IFNγ in response to the stimulation with the peptide of SEQ ID NO: 15. The compound and the peptide administered to the mice are described under the bars. […] Therefore, effect of each vaccine in CTL induction is known from the difference in cell count between the black bar and the white bar. When no IFNγ is produced by cells in the absence of the stimulation with SEQ ID NO: 15, a white bar cannot have a height.\nThe solution was diluted with water for injection to a concentration of 10 mg/ml, and then converted to an emulsion by addition of an equal volume of Montanide ISA 51 VC.\n(§1) The solution was diluted with water for injection to a concentration of 10 mg/ml, and then converted to an emulsion by addition of an equal volume of Montanide ISA 51 VG.\nas §1, §1, §1, §1, §1, §1, §1, §1, §1",
  "data": [
    {"sequence": "GCNKRYFKLSHL [SEQ ID NO: 46]", "values": [
      {"measurement": "Effect of the cocktail vaccine comprising the peptide on the CTL induction by the compound of formula (4)", "value": "enhanced"},
      {"measurement": "CTL induction by the cocktail vaccine comprising the peptide in addition to the compound of formula (4) (increase in number of CTLs)", "value": "highly effective in CTL induction"}
    ]},
    {"sequence": "GCNKRYFKLSHLQMHSRK [SEQ ID NO: 6]", "values": [
      {"measurement": "Effect of the cocktail vaccine comprising the peptide on the CTL induction by the compound of formula (4)", "value": "enhanced"},
      {"measurement": "CTL induction by the cocktail vaccine comprising the peptide in addition to the compound of formula (4) (increase in number of CTLs)", "value": "highly effective in CTL induction"}
    ]},
    {"sequence": "RYFKLSHLQMHSRK [SEQ ID NO: 39]", "values": [
      {"measurement": "Effect of the cocktail vaccine comprising the peptide on the CTL induction by the compound of formula (4)", "value": "enhanced"},
      {"measurement": "CTL induction by the cocktail vaccine comprising the peptide in addition to the compound of formula (4) (increase in number of CTLs)", "value": "highly effective in CTL induction"}
    ]},
    {"sequence": "NKRYFKLSHLQMHSRK [SEQ ID NO: 8]", "values": [
      {"measurement": "Effect of the cocktail vaccine comprising the peptide on the CTL induction by the compound of formula (4)", "value": "enhanced"},
      {"measurement": "CTL induction by the cocktail vaccine comprising the peptide in addition to the compound of formula (4) (increase in number of CTLs)", "value": "highly effective in CTL induction"}
    ]},
    {"sequence": "KRYFKLSHLQMHSRKH [SEQ ID NO: 10, reference compound]", "values": [
      {"measurement": "Effect of the cocktail vaccine comprising the peptide on the CTL induction by the compound of formula (4)", "value": "enhanced"},
      {"measurement": "CTL induction by the cocktail vaccine comprising the peptide in addition to the compound of formula (4) (increase in number of CTLs)", "value": "highly effective in CTL induction"}
    ]},
    {"sequence": "YFKLSHLQMHSRKHT [SEQ ID NO: 12]", "values": [
      {"measurement": "Effect of the cocktail vaccine comprising the peptide on the CTL induction by the compound of formula (4)", "value": "enhanced"},
      {"measurement": "CTL induction by the cocktail vaccine comprising the peptide in addition to the compound of formula (4) (increase in number of CTLs)", "value": "highly effective in CTL induction"}
    ]},
    {"sequence": "PGCNKRYFKLSHLQMHSRKHTG [SEQ ID NO: 4, reference compound]", "values": [
      {"measurement": "Effect of the cocktail vaccine comprising the peptide on the CTL induction by the compound of formula (4)", "value": "enhanced"},
      {"measurement": "CTL induction by the cocktail vaccine comprising the peptide in addition to the compound of formula (4) (increase in number of CTLs)", "value": "highly effective in CTL induction"}
    ]},
    {"sequence": "PGCNKRYFKLSHLQMHSRK [SEQ ID NO: 5]", "values": [
      {"measurement": "Effect of the cocktail vaccine comprising the peptide on the CTL induction by the compound of formula (4)", "value": "enhanced"},
      {"measurement": "CTL induction by the cocktail vaccine comprising the peptide in addition to the compound of formula (4) (increase in number of CTLs)", "value": "highly effective in CTL induction"}
    ]},
    {"sequence": "RYFKLSHLQMHSRKHT [SEQ ID NO: 48]", "values": [
      {"measurement": "Effect of the cocktail vaccine comprising the peptide on the CTL induction by the compound of formula (4)", "value": "enhanced"},
      {"measurement": "CTL induction by the cocktail vaccine comprising the peptide in addition to the compound of formula (4) (increase in number of CTLs)", "value": "highly effective in CTL induction"}
    ]},
    {"sequence": "RYFKLSHLQMHSRKHTGE [SEQ ID NO: 49]", "values": [
      {"measurement": "Effect of the cocktail vaccine comprising the peptide on the CTL induction by the compound of formula (4)", "value": "enhanced"},
      {"measurement": "CTL induction by the cocktail vaccine comprising the peptide in addition to the compound of formula (4) (increase in number of CTLs)", "value": "highly effective in CTL induction"}
    ]},
    {"sequence": "RYFKLSHLQMHSRKH [SEQ ID NO: 11]", "values": [
      {"measurement": "Effect of the cocktail vaccine comprising the peptide on the CTL induction by the compound of formula (4)", "value": "enhanced"},
      {"measurement": "CTL induction by the cocktail vaccine comprising the peptide in addition to the compound of formula (4) (increase in number of CTLs)", "value": "highly effective in CTL induction"}
    ]},
    {"sequence": "KLSHLQMHSRKHTGE [SEQ ID NO: 14]", "values": [
      {"measurement": "Effect of the cocktail vaccine comprising the peptide on the CTL induction by the compound of formula (4)", "value": "enhanced"},
      {"measurement": "CTL induction by the cocktail vaccine comprising the peptide in addition to the compound of formula (4) (increase in number of CTLs)", "value": "highly effective in CTL induction"}
    ]},
    {"sequence": "AYPGCNKRYFKLSHLQMHSRK [SEQ ID NO: 44]", "values": [
      {"measurement": "Effect of the cocktail vaccine comprising the peptide on the CTL induction by the compound of formula (4)", "value": "enhanced"},
      {"measurement": "CTL induction by the cocktail vaccine comprising the peptide in addition to the compound of formula (4) (increase in number of CTLs)", "value": "highly effective in CTL induction"}
    ]},
    {"sequence": "FKLSHLQMHSRKHTG [SEQ ID NO: 13]", "values": [
      {"measurement": "Effect of the cocktail vaccine comprising the peptide on the CTL induction by the compound of formula (4)", "value": "enhanced"},
      {"measurement": "CTL induction by the cocktail vaccine comprising the peptide in addition to the compound of formula (4) (increase in number of CTLs)", "value": "highly effective in CTL induction"}
    ]},
    {"sequence": "KRYFKLSHLQMHSRK [SEQ ID NO: 9]", "values": [
      {"measurement": "Effect of the cocktail vaccine comprising the peptide on the CTL induction by the compound of formula (4)", "value": "enhanced"},
      {"measurement": "CTL induction by the cocktail vaccine comprising the peptide in addition to the compound of formula (4) (increase in number of CTLs)", "value": "highly effective in CTL induction"}
    ]},
    {"sequence": "AYPGCNKRYFKLSHLQMH [SEQ ID NO: 43]", "values": [
      {"measurement": "Effect of the cocktail vaccine comprising the peptide on the CTL induction by the compound of formula (4)", "value": "enhanced"},
      {"measurement": "CTL induction by the cocktail vaccine comprising the peptide in addition to the compound of formula (4) (increase in number of CTLs)", "value": "highly effective in CTL induction"}
    ]},
    {"sequence": "YPGCNKRYFKLSHLQ [SEQ ID NO: 3]", "values": [
      {"measurement": "Effect of the cocktail vaccine comprising the peptide on the CTL induction by the compound of formula (4)", "value": "enhanced"},
      {"measurement": "CTL induction by the cocktail vaccine comprising the peptide in addition to the compound of formula (4) (increase in number of CTLs)", "value": "highly effective in CTL induction"}
    ]},
    {"sequence": "AYPGCNKRYFKLSHL [SEQ ID NO: 2]", "values": [
      {"measurement": "Effect of the cocktail vaccine comprising the peptide on the CTL induction by the compound of formula (4)", "value": "enhanced"},
      {"measurement": "CTL induction by the cocktail vaccine comprising the peptide in addition to the compound of formula (4) (increase in number of CTLs)", "value": "highly effective in CTL induction"}
    ]},
    {"sequence": "RYFKLSHLQMH [SEQ ID NO: 45]", "values": [
      {"measurement": "Effect of the cocktail vaccine comprising the peptide on the CTL induction by the compound of formula (4)", "value": "enhanced"},
      {"measurement": "CTL induction by the cocktail vaccine comprising the peptide in addition to the compound of formula (4) (increase in number of CTLs)", "value": "highly effective in CTL induction"}
    ]},
    {"sequence": "CNKRYFKLSHLQMHSRK [SEQ ID NO: 7, reference compound]", "values": [
      {"measurement": "Effect of the cocktail vaccine comprising the peptide on the CTL induction by the compound of formula (4)", "value": "enhanced"},
      {"measurement": "CTL induction by the cocktail vaccine comprising the peptide in addition to the compound of formula (4) (increase in number of CTLs)", "value": "highly effective in CTL induction"}
    ]}
  ]
}
